Measurements reported in patent publication US5070210A, “Novel ketenimines as intermediates for insecticides” (ICI Americas Inc., priority 1990, dated 1991).

Legend:
Format in all cases: in vivo
[1] = tested on: Housefly [Musca domestica]; assay: Housefly insecticidal test; details: μg per 25 female flies; mortality after 48 hours
Method: (§1) The compounds in Tables 1 and 2 above were tested for insecticidal activity using the following testing procedures. LC50 values, based on the results of these tests and calculated according to dosage-mortality curves, are expressed in Table 3.
Housefly [Musca domestica]:
Test compounds were diluted in acetone and aliquots pipetted onto the bottom of aluminum dishes. To ensure even spreading of the chemical on the bottom of the dishes, 1 ml of acetone containing 0.01% peanut oil was also added to each dish. After all solvents had evaporated, the dishes were placed in circular cardboard cages containing 25 female houseflies, 1-2 days old. The cages were covered on the bottom with cellophane and on the top with tulle netting, and each contained a sugar-water saturated cotton plug for maintenance of the flies. Mortality was recorded after 48 hours. Test levels ranged from 100 μg/25 female houseflies downward. The LC-50 value is expressed below in Table 3 under the heading "HF", in terms of μg of the test compound per 25 female flies.

[2] = tested on: Tobacco Budworm [Heliothis virescens (Fabricius)] eggs; assay: Tobacco budworm egg test; details: 2-day old eggs, percent in solution
Method: as §1
Tobacco Budworm [Heliothis virescens (Fabricius)]:
(b). Eggs: Paper towel patches of 2-day old eggs of the tobacco budworm were dipped in acetone solutions of the test compound and placed in petri dishes containing a portion of larval rearing medium. Treated eggs were maintained at 78° F. and mortality was recorded after all control eggs had hatched and the young larvae were feeding on the media. Test concentrations ranged from 0.1% downward. The LC-50 value is expressed below in Table 3 under the heading "TBW-E" in terms of percent of the test compound in the solution.

[3] = tested on: Cabbage Looper [Trichoplusia ni (Hubner)]; assay: Cabbage looper insecticidal test; details: second-instar larvae, percent in solution; 3-5 days
Method: as §1
Cabbage Looper [Trichoplusia ni (Hubner)]:
Test compounds were diluted in a 50-50 acetone-water solution. Cotyledons of hyzini squash (Calabacita abobrinha), approximately 1×1.5 inches, were immersed in the test solutions for 2-3 seconds and placed on a wire screen to dry. The dried leaves were placed in petri dishes containing a moistened piece of filter paper and infested with 5 second-instar cabbage looper larvae. The dishes were placed in a high humidity chamber. Mortality of the larvae was recorded 3-5 days later. Test concentrations ranged from 0.1% downward. The LC-50 value is expressed below in Table 3 under the heading "CL" in terms of percent of the test compound in solution.

CC(C)C(=Nc1ccc(C(C)(C)C)c(Cl)c1)OCc1cccc(Oc2ccc(F)cc2)c1 [Compound 308]
LC50, HF [1]: > 100 µg
LC50, TBW, E (TBW-E) [2]: > 0.1%
LC50, CL [3]: 0.009%

CC(C)C(=Nc1ccc(F)c(Cl)c1)OCc1cccc(Oc2cc(F)cc(F)c2)c1 [Compound 215]
LC50, HF [1]: 75 µg
LC50, TBW, E (TBW-E) [2]: > 0.1%
LC50, CL [3]: 0.00075%

CC(C)(Cl)C(=Nc1ccc(F)c(Cl)c1)OCc1cccc(Oc2ccc(F)cc2)c1 [Compound 224]
LC50, HF [1]: > 100 µg
LC50, TBW, E (TBW-E) [2]: > 0.1%
LC50, CL [3]: 0.001%

CC(C)C(=Nc1ccc(C(F)(F)F)cc1)OCc1ccc(F)c(Oc2ccc(F)cc2)c1 [Compound 287]
LC50, HF [1]: > 100 µg
LC50, TBW, E (TBW-E) [2]: > 0.1%
LC50, CL [3]: 0.0025%

CC(C)C(=Nc1cccc(I)c1)OCc1cccc(Oc2ccccc2)c1 [Compound 136]
LC50, HF [1]: 9 µg
LC50, TBW, E (TBW-E) [2]: 0.08%
LC50, CL [3]: 0.004%

CC(C)C(=Nc1ccc2c(c1)OCO2)OCc1cccc(Oc2ccccc2F)c1 [Compound 190]
LC50, HF [1]: 7.5 µg
LC50, TBW, E (TBW-E) [2]: 0.023%
LC50, CL [3]: 0.0004%

CC(C)C(=Nc1cccc(C(F)(F)F)c1)OC(C)c1cccc(Oc2ccccc2)n1 (stereo not drawn) [Compound 499]
LC50, HF [1]: 63 µg
LC50, TBW, E (TBW-E) [2]: > 0.1%
LC50, CL [3]: 0.0024%

CCC(CC)C(=Nc1ccc(Cl)cc1)OCc1cccc(Oc2ccc(F)cc2)c1 [Compound 290]
LC50, HF [1]: > 100 µg
LC50, TBW, E (TBW-E) [2]: > 0.1%
LC50, CL [3]: 0.017%

CC(C)C(=Nc1cccc(C(F)(F)F)c1)OCc1cccc(Oc2ccc(Br)cc2)n1 [Compound 493]
LC50, HF [1]: 36 µg
LC50, TBW, E (TBW-E) [2]: 0.05%
LC50, CL [3]: 0.0008%

Fc1c(F)c(F)c(COC(=Nc2cccc(Cl)c2Cl)C(Cl)Cl)c(F)c1F [Compound 454]
LC50, HF [1]: > 100 µg
LC50, TBW, E (TBW-E) [2]: > 0.1%
LC50, CL [3]: 0.03%

CC(C)C(=Nc1ccc(C#N)cc1)OCc1cccc(Oc2cccc(Cl)c2)c1 [Compound 208]
LC50, HF [1]: 27 µg
LC50, TBW, E (TBW-E) [2]: > 0.1%
LC50, CL [3]: 0.0035%

Cc1ccc(C)c(N=C(OCc2cccc(Oc3ccccc3)c2)C(C)C)c1 [Compound 250]
LC50, HF [1]: 38 µg
LC50, TBW, E (TBW-E) [2]: 0.038%
LC50, CL [3]: 0.004%

CC(C)C(=Nc1ccc2c(c1)OCO2)OCc1cccc(Oc2ccccc2F)c1 [Compound 183]
LC50, HF [1]: 10 µg
LC50, TBW, E (TBW-E) [2]: 0.075%
LC50, CL [3]: 0.00075%

CC(C)c1ccc(N=C(OCc2cccc(Oc3ccc(F)cc3)c2)C(C)(C)C)cc1 [Compound 322]
LC50, HF [1]: > 100 µg
LC50, TBW, E (TBW-E) [2]: > 0.1%
LC50, CL [3]: 0.007%

COC(C)C(=Nc1ccc(Cl)cc1)OCc1cccc(Oc2ccccc2)c1 (stereo not drawn) [Compound 22]
LC50, HF [1]: 15 µg
LC50, TBW, E (TBW-E) [2]: 0.08%
LC50, CL [3]: 0.004%

CC(C)(C)C(=Nc1cccc(Br)c1)OCc1cccc(Oc2ccccc2)c1 [Compound 134]
LC50, HF [1]: > 100 µg
LC50, TBW, E (TBW-E) [2]: > 0.1%
LC50, CL [3]: 0.015%

CCCC(=Nc1ccc(Cl)c(Cl)c1)OCc1cccc(Oc2ccccc2)c1 [Compound 38]
LC50, HF [1]: 33 µg
LC50, TBW, E (TBW-E) [2]: 0.05%
LC50, CL [3]: 0.006%

CCC(C)C(=Nc1ccc(F)c(Cl)c1)OCc1ccc(F)c(Oc2ccccc2)c1 (stereo not drawn) [Compound 261]
LC50, HF [1]: 24 µg
LC50, TBW, E (TBW-E) [2]: 0.05%
LC50, CL [3]: 0.001%

CC(C)C(=Nc1ccc(Br)cc1F)OCc1cccc(Oc2ccccc2)c1 [Compound 79]
LC50, HF [1]: 6 µg
LC50, TBW, E (TBW-E) [2]: 0.05%
LC50, CL [3]: 0.003%

CCOC(=O)c1ccc(N=C(OCc2cccc(Oc3ccccc3)c2)C(C)C)cc1Cl [Compound 104]
LC50, HF [1]: > 100 µg
LC50, TBW, E (TBW-E) [2]: > 0.1%
LC50, CL [3]: 0.004%

CC(C)C(=Nc1cc(F)ccc1F)OCc1cccc(Oc2ccccc2)c1 [Compound 56]
LC50, HF [1]: 91 µg
LC50, TBW, E (TBW-E) [2]: > 0.05%
LC50, CL [3]: 0.01%

Cc1ccc(Cl)cc1N=C(OCc1cccc(Oc2ccccc2)c1)C(C)C [Compound 263]
LC50, HF [1]: > 100 µg
LC50, TBW, E (TBW-E) [2]: > 0.1%
LC50, CL [3]: 0.05%

CC(C)C(=Nc1cccc(Br)c1)OCc1cccc(Oc2ccc(F)cc2)c1 [Compound 229]
LC50, HF [1]: 20 µg
LC50, TBW, E (TBW-E) [2]: > 0.1%
LC50, CL [3]: 0.0005%

CC(C)C(=Nc1ccc2c(c1)OCO2)OCc1c(F)c(F)c(F)c(F)c1F [Compound 464]
LC50, HF [1]: > 100 µg
LC50, TBW, E (TBW-E) [2]: > 0.1%
LC50, CL [3]: 0.08%

CSc1cccc(N=C(OCc2cccc(Oc3ccccc3)c2)C(C)C)c1 [Compound 166]
LC50, HF [1]: 22 µg
LC50, TBW, E (TBW-E) [2]: > 0.1%
LC50, CL [3]: 0.009%

CCC(C)C(=Nc1ccc2c(c1)OCO2)OCc1cccc(Oc2ccccc2)c1 (stereo not drawn) [Compound 185]
LC50, HF [1]: 13 µg
LC50, TBW, E (TBW-E) [2]: 0.075%
LC50, CL [3]: 0.0006%

CC(C)C(=Nc1ccc(Br)c(Br)c1)OCc1cccc(Oc2ccc(F)cc2)c1 [Compound 251]
LC50, HF [1]: 25 µg
LC50, TBW, E (TBW-E) [2]: 0.06%
LC50, CL [3]: 0.0005%

CC(C)C(=Nc1ccc(F)cc1)OCc1cccc(Oc2ccc(F)cc2)c1 [Compound 197]
LC50, HF [1]: > 100 µg
LC50, TBW, E (TBW-E) [2]: 0.05%
LC50, CL [3]: 0.0004%

CC(C)C(=Nc1ccc(Cl)cc1)OCc1cccc(Oc2ccc(Br)cc2)c1 [Compound 237]
LC50, HF [1]: 50 µg
LC50, TBW, E (TBW-E) [2]: 0.075%
LC50, CL [3]: 0.0006%

CSc1ccc(N=C(OCc2cccc(Oc3ccccc3)c2)C(Cl)Cl)cc1 [Compound 141]
LC50, HF [1]: 35 µg
LC50, TBW, E (TBW-E) [2]: > 0.1%
LC50, CL [3]: < 0.1%

CC(C)c1ccc(N=C(OCc2cccc(Oc3ccccc3)c2)C(C)(C)C)cc1 [Compound 165]
LC50, HF [1]: > 100 µg
LC50, TBW, E (TBW-E) [2]: > 0.1%
LC50, CL [3]: 0.007%

CC(C)C(=Nc1c(F)c(F)c(F)c(F)c1F)OCc1cccc(Oc2ccc(F)cc2F)c1 [Compound 232]
LC50, HF [1]: > 100 µg
LC50, TBW, E (TBW-E) [2]: > 0.1%
LC50, CL [3]: 0.004%

CC(Br)C(=Nc1ccc(F)c(Cl)c1)OCc1cccc(Oc2ccccc2)c1 (stereo not drawn) [Compound 118]
LC50, HF [1]: 18 µg
LC50, TBW, E (TBW-E) [2]: > 0.1%
LC50, CL [3]: 0.0013%

CC(C)C(=Nc1cccc(Cl)c1)OCc1cccc(Oc2ccc(Br)cc2)c1 [Compound 260]
LC50, HF [1]: 22 µg
LC50, TBW, E (TBW-E) [2]: > 0.1%
LC50, CL [3]: 0.00075%

CCOC(=O)c1cccc(N=C(OCc2cccc(Oc3ccccc3)c2)C(C)(C)C)c1 [Compound 168]
LC50, HF [1]: > 100 µg
LC50, TBW, E (TBW-E) [2]: > 0.1%
LC50, CL [3]: 0.1%

CC(C)C(=Nc1cc(Cl)c(Cl)cc1Cl)OCc1cccc(Oc2ccccc2)c1 [Compound 18]
LC50, HF [1]: > 100 µg
LC50, TBW, E (TBW-E) [2]: 0.09%
LC50, CL [3]: 0.008%

CC(C)C(=Nc1ccc(Cl)c(Cl)c1)OCc1cccc(Oc2cccc(Cl)c2)c1 [Compound 207]
LC50, HF [1]: > 100 µg
LC50, TBW, E (TBW-E) [2]: > 0.1%
LC50, CL [3]: 0.008%

CCC(=Nc1ccc(Cl)c(Cl)c1)OCc1cccc(Oc2ccccc2)c1 [Compound 36]
LC50, HF [1]: 20 µg
LC50, TBW, E (TBW-E) [2]: > 0.1%
LC50, CL [3]: 0.024%

Cc1cc(N=C(OCc2cccc(Oc3ccccc3)c2)C(C)C)ccc1Br [Compound 127]
LC50, HF [1]: 58 µg
LC50, TBW, E (TBW-E) [2]: 0.04%
LC50, CL [3]: 0.01%

CC(Cl)C(=Nc1ccc(Cl)c(Cl)c1)OCc1cccc(Oc2ccccc2)c1 (stereo not drawn) [Compound 27]
LC50, HF [1]: > 100 µg
LC50, TBW, E (TBW-E) [2]: > 0.1%
LC50, CL [3]: 0.04%

CC(C)C(=Nc1ccc(Cl)c(Cl)c1)OCc1cccc(Oc2ccc(F)cc2F)c1 [Compound 213]
LC50, HF [1]: > 100 µg
LC50, TBW, E (TBW-E) [2]: > 0.1%
LC50, CL [3]: 0.00075%

CC(C)C(=Nc1ccc(F)c(F)c1)OCc1cccc(Oc2ccc(Br)cc2)c1 [Compound 275]
LC50, HF [1]: 21 µg
LC50, TBW, E (TBW-E) [2]: 0.045%
LC50, CL [3]: 0.00012%

CC(C)(C)C(=Nc1ccc(F)cc1)OCc1cccc(Oc2ccccc2)c1 [Compound 48]
LC50, HF [1]: > 100 µg
LC50, TBW, E (TBW-E) [2]: > 0.05%
LC50, CL [3]: 0.03%

Cc1cccc(N=C(OCc2cccc(Oc3ccccc3)c2)C(C)C)c1C [Compound 249]
LC50, HF [1]: 36 µg
LC50, TBW, E (TBW-E) [2]: 0.035%
LC50, CL [3]: 0.0025%

CCC(=Nc1cccc(Cl)c1Cl)OCc1cccc(Oc2ccccc2)c1 [Compound 28]
LC50, HF [1]: > 100 µg
LC50, TBW, E (TBW-E) [2]: > 0.1%
LC50, CL [3]: 0.009%
